Results as given in publication PMC8795197, “Safety and activity of WX-0593 (Iruplinalkib) in patients with ALK- or ROS1-rearranged advanced non-small cell lung cancer: a phase 1 dose-escalation and dose-expansion trial” (Signal Transduction and Targeted Therapy, 2022).
Where two headings read alike, the source gives them in different places.

Tests used:
Ba/F3 CD74-ROS1-L1951R = test: Growth of transfected Ba/F3 cells (CellTiter-Glo, 3 days); assay type: cell-based; details: Mus musculus, BaF3
Procedure: (§1) Harvest cells during the logarithmic growth period and count cells using blood counting chamber. Adjust cell concentration with culture medium. Add 90µl cell suspensions to two 96-well plates to the final cell density as described before. Incubate the plate overnight in humidified incubator at 37℃ with 5% CO2. Dispense 10µl drug solution (10×) to each well (triplicate for each concentration), and the DMSO final concentration in culture medium is 0.1% [v/v]. Culture the plates for 3 days.On Day 3, Read luminescent using Multi Label Reader. The software of GraphPad Prism was used to calculate IC50. The graphical curves were fitted using a nonlinear regression model with a sigmoidal dose response.

Ba/F3 CD74-ROS1-S1986Y = test: as above; assay type: cell-based; details: Mus musculus, BaF3
Procedure: as §1

Ba/F3 CD74-ROS1-D2033N = test: as above; assay type: cell-based; details: Mus musculus, BaF3
Procedure: as §1

Ba/F3 CD74-ROS1-S1986F = test: as above; assay type: cell-based; details: Mus musculus, BaF3
Procedure: as §1

Ba/F3 ALK-T1151Tins = test: as above; assay type: cell-based; details: Mus musculus, BaF3
Procedure: as §1, with “days. On” for “days.On”

Ba/F3 ALK-G1269A = test: as above; assay type: cell-based; details: Mus musculus, BaF3
Procedure: as §1, with “days. On” for “days.On”

Ba/F3 ALK-L1196M = test: as above; assay type: cell-based; details: Mus musculus, BaF3
Procedure: as §1, with “days. On” for “days.On”

Ba/F3 ALK-V1180L = test: as above; assay type: cell-based; details: Mus musculus, BaF3
Procedure: as §1, with “days. On” for “days.On”

Ba/F3 ALK-F1174V = test: as above; assay type: cell-based; details: Mus musculus, BaF3
Procedure: as §1, with “days. On” for “days.On”

Ba/F3 ALK-I1171N = test: as above; assay type: cell-based; details: Mus musculus, BaF3
Procedure: as §1, with “days. On” for “days.On”

Ba/F3 ALK-C1156Y = test: as above; assay type: cell-based; details: Mus musculus, BaF3
Procedure: as §1, with “days. On” for “days.On”

Ba/F3 ALK-F1174L = test: as above; assay type: cell-based; details: Mus musculus, BaF3
Procedure: as §1, with “days. On” for “days.On”

Ba/F3 ALK-I1171S = test: as above; assay type: cell-based
Procedure: as §1, with “days. On” for “days.On”

Ba/F3 ALK-L1152P = test: as above; assay type: cell-based; details: Mus musculus, BaF3
Procedure: as §1, with “days. On” for “days.On”

Ba/F3 ALK-F1174C = test: as above; assay type: cell-based
Procedure: as §1, with “days. On” for “days.On”

Ba/F3 ALK-WT = test: as above; assay type: cell-based; details: Mus musculus, BaF3
Procedure: as §1, with “days. On” for “days.On”

Ba/F3 ALK-G1202del = test: as above; assay type: cell-based; details: Mus musculus, BaF3
Procedure: as §1, with “days. On” for “days.On”

Ba/F3 ALK-G1202R = test: as above; assay type: cell-based; details: Mus musculus, BaF3
Procedure: as §1, with “days. On” for “days.On”

Ba/F3 ALK-I1171T = test: as above; assay type: cell-based; details: Mus musculus, BaF3
Procedure: as §1, with “days. On” for “days.On”

Ba/F3 ALK-L1152R = test: as above; assay type: cell-based; details: Mus musculus, BaF3
Procedure: as §1, with “days. On” for “days.On”

[1] = test system: patients treated with ALK TKIs; details: cited from earlier work
[2] = test system: Ba/F3 SLC34A2-ROS1-L2026M; test: Growth of transfected Ba/F3 cells (CellTiter-Glo, 3 days); assay type: cell-based; details: Mus musculus, BaF3
Procedure: as §1

[3] = test system: Ba/F3 SLC34A2-ROS1-G2032R; test: as above; assay type: cell-based; details: Mus musculus, BaF3
Procedure: as §1

Ba/F3 SLC34A2-ROS1 = test: as above; assay type: cell-based; details: Mus musculus, BaF3
Procedure: as §1

LU-01-0319R NSCLC PDX = test: PDX model resistant to crizotinib; assay type: in vivo; details: WX-0593 2.5, 5, 10 mg/kg; ceritinib 10/20 mg/kg; brigatinib 10 mg/kg
[4] = test system: NSCLC patients with ALK or ROS1 rearrangement; details: cited from earlier work
[5] = Mus musculus, BaF3, ALK-I1171S, first listing (r12), read-out: IC50
[6] = Mus musculus, BaF3, ALK-I1171S, second listing (r19), read-out: IC50
[7] = Mus musculus, BaF3, ALK-F1174C, first listing (r10), read-out: IC50
[8] = Mus musculus, BaF3, ALK-F1174C, second listing (r15), read-out: IC50
[9] = Grades 1 and 2 adverse reactions

Compound	IC50 (Ba/F3 CD74-ROS1-L1951R) [nM]	IC50 (Ba/F3 CD74-ROS1-D2033N) [nM]	IC50 (Ba/F3 CD74-ROS1-S1986Y) [nM]	IC50 (Ba/F3 CD74-ROS1-S1986F) [nM]	IC50 (Ba/F3 ALK-T1151Tins; ALK-T1151Tins, read-out: IC50) [nM]	IC50 (Ba/F3 ALK-G1269A; ALK-G1269A, read-out: IC50) [nM]	IC50 (Ba/F3 ALK-L1196M; ALK-L1196M, read-out: IC50) [nM]	IC50 (Ba/F3 ALK-V1180L; ALK-V1180L, read-out: IC50) [nM]	IC50 (Ba/F3 ALK-F1174V; ALK-F1174V, read-out: IC50) [nM]	IC50 (Ba/F3 ALK-I1171N; ALK-I1171N, read-out: IC50) [nM]	IC50 (Ba/F3 ALK-C1156Y; ALK-C1156Y, read-out: IC50) [nM]	IC50 (Ba/F3 ALK-F1174L; ALK-F1174L, read-out: IC50) [nM]	IC50 (Ba/F3 ALK-I1171S; [5]) [nM]	IC50 (Ba/F3 ALK-I1171S; [6]) [nM]	IC50 (Ba/F3 ALK-L1152P; ALK-L1152P, read-out: IC50) [nM]	IC50 (Ba/F3 ALK-F1174C; [7]) [nM]	IC50 (Ba/F3 ALK-F1174C; [8]) [nM]	IC50 [2] [nM]	IC50 [3] [nM]	IC50 (Ba/F3 SLC34A2-ROS1) [nM]	also measured
Cc1cc(Nc2ncc(Cl)c(Nc3ccccc3S(=O)(=O)C(C)C)n2)c(OC(C)C)cc1C1CCNCC1 [Ceritinib]	642	159	32.5	49.6	96	16	33	15.6	53.7	41.8	87	21	97	45.8	71.5	95	79.5	54	1100	14	IC50 (Ba/F3 ALK-WT; ALK-WT, read-out: IC50): 13 nM; IC50 (Ba/F3 ALK-G1202del; ALK-G1202del, read-out: IC50): 925 nM; IC50 (Ba/F3 ALK-G1202R; ALK-G1202R, read-out: IC50): 502 nM; IC50 (Ba/F3 ALK-I1171T; ALK-I1171T, read-out: IC50): 27.8 nM; IC50 (Ba/F3 ALK-L1152R; ALK-L1152R, read-out: IC50): 116 nM; ALT increased [1, 9]: 35%; diarrhea [1, 9]: 75%; fatigue [1, 9]: 47%; nausea [1, 9]: 82%; vomiting [1, 9]: 65%; diarrhea, % of patients [1]: 75%; dose reduction due to TEAEs, % of patients [1]: 62%; anti-tumor effect (LU-01-0319R NSCLC PDX): significant effects against crizotinib-induced resistance; ORR ([4]; ALK-rearranged patients): 58%
C[C@@H]1CN(C(=O)c2ccc(NC(=O)c3cc(O[C@H](C)c4c(Cl)ccc(F)c4Cl)c(N)nn3)cc2)C[C@H](C)N1 [Ensartinib]	970	195	189	192	42	212	98	16.6	54.5	18.4	17	29	39	41.5	25.7	62	62.2	278	1640	49	IC50 (Ba/F3 ALK-WT; ALK-WT, read-out: IC50): 14 nM; IC50 (Ba/F3 ALK-G1202del; ALK-G1202del, read-out: IC50): 932 nM; IC50 (Ba/F3 ALK-G1202R; ALK-G1202R, read-out: IC50): 409 nM; IC50 (Ba/F3 ALK-I1171T; ALK-I1171T, read-out: IC50): 28 nM; IC50 (Ba/F3 ALK-L1152R; ALK-L1152R, read-out: IC50): 71.4 nM; rash, % of patients [1]: 56%; ORR ([4]; ALK-rearranged patients): 60%
C[C@H]1Oc2cc(cnc2N)-c2c(nn(C)c2C#N)CN(C)C(=O)c2ccc(F)cc21 [Lorlatinib]	5.1	1.7	1.5	1.1	–	–	–	–	–	–	–	–	–	–	–	–	–	< 1	197	< 1	IC50 (Ba/F3 ALK-T1151Tins): 7 nM; IC50 (Ba/F3 ALK-G1269A): 35 nM; IC50 (Ba/F3 ALK-L1196M): 54 nM; IC50 (Ba/F3 ALK-V1180L): 5.2 nM; IC50 (Ba/F3 ALK-F1174V): 16.1 nM; IC50 (Ba/F3 ALK-I1171N): 41.1 nM; IC50 (Ba/F3 ALK-C1156Y): 4 nM; IC50 (Ba/F3 ALK-F1174L): 4 nM; IC50 (Ba/F3 ALK-I1171S): 52.8 nM; IC50 (Ba/F3 ALK-I1171S; Mus musculus, BaF3): 33 nM; IC50 (Ba/F3 ALK-L1152P): 4.6 nM; IC50 (Ba/F3 ALK-F1174C): 15.9 nM; IC50 (Ba/F3 ALK-F1174C; Mus musculus, BaF3): 11 nM; IC50 (Ba/F3 ALK-WT): 4 nM; IC50 (Ba/F3 ALK-G1202del): 215 nM; IC50 (Ba/F3 ALK-G1202R): 26 nM; IC50 (Ba/F3 ALK-I1171T): 19 nM; IC50 (Ba/F3 ALK-L1152R): 17.4 nM; ORR ([4]; ALK TKI-naive patients with ROS1 rearrangement): 62%; ORR ([4]; ROS1 rearrangement, crizotinib as the only TKI): 35%

Second part, led by results:

IC50 (Ba/F3 CD74-ROS1-L1951R) [nM]	IC50 (Ba/F3 CD74-ROS1-D2033N) [nM]	Compound	IC50 (Ba/F3 CD74-ROS1-S1986Y) [nM]	IC50 (Ba/F3 CD74-ROS1-S1986F) [nM]	IC50 (Ba/F3 ALK-T1151Tins; ALK-T1151Tins, read-out: IC50) [nM]	IC50 (Ba/F3 ALK-G1269A; ALK-G1269A, read-out: IC50) [nM]	IC50 (Ba/F3 ALK-L1196M; ALK-L1196M, read-out: IC50) [nM]	IC50 (Ba/F3 ALK-V1180L; ALK-V1180L, read-out: IC50) [nM]	IC50 (Ba/F3 ALK-F1174V; ALK-F1174V, read-out: IC50) [nM]	IC50 (Ba/F3 ALK-I1171N; ALK-I1171N, read-out: IC50) [nM]	IC50 (Ba/F3 ALK-C1156Y; ALK-C1156Y, read-out: IC50) [nM]	IC50 (Ba/F3 ALK-F1174L; ALK-F1174L, read-out: IC50) [nM]	IC50 (Ba/F3 ALK-I1171S; [5]) [nM]	IC50 (Ba/F3 ALK-I1171S; [6]) [nM]	IC50 (Ba/F3 ALK-L1152P; ALK-L1152P, read-out: IC50) [nM]	IC50 (Ba/F3 ALK-F1174C; [7]) [nM]	IC50 (Ba/F3 ALK-F1174C; [8]) [nM]	IC50 [2] [nM]	IC50 [3] [nM]	IC50 (Ba/F3 SLC34A2-ROS1) [nM]	also measured
5410	5070	CCc1cc2c(cc1N1CCC(N3CCOCC3)CC1)C(C)(C)c1[nH]c3cc(C#N)ccc3c1C2=O [Alectinib]	10000	10000	–	–	–	–	–	–	–	–	–	–	–	–	–	–	–	–	–
[…]	[…]	C[C@@H](Oc1cc(-c2cnn(C3CCNCC3)c2)cnc1N)c1c(Cl)ccc(F)c1Cl [Crizotinib]	–	–	–	–	–	–	–	–	–	–	–	–	–	–	–	162	[…]	8	anti-tumor effect (LU-01-0319R NSCLC PDX): resistant
